{"source": "patent US20100310530A1", "about": "“Cell Therapy for Brain Tissue Damage” (StemCyte Inc., priority 2009, published 2010)", "key": {"cerebral ischemia rats": {"system": "cerebral ischemia rats", "test": "Neurological behavioral measurements after cerebral ischemia (MCA ligation)", "type": "in vivo, rat", "settings": "GM6001 ip after HP-hUCB^34 implantation, or brefeldin A-incubated HP-hUCB^34; vs vehicle control", "method": "(§2) Experimental rats and mice were divided into three groups (FIG. 2A): Intracerebral transplantation of hUCB^34 with HP (HP-hUCB^34), intracerebral transplantation of hUCB^34 without HP (hUCB^34), and a vehicle-control group. All transplantation took place on day 7. The HP-hUCB^34 group was treated in 1% O2 hypoxic conditions for 20-24 hours. Cerebral ischemia was induced in every experimental rat on day 0. At 7 days after cerebral ischemia, experimental rats in the two intracerebral hUCB^34 transplantation groups were injected stereotaxically with approximately 2×10^5 cells of hUCB^34 labeled with bis-benzimide in a 3-5 μL PBS suspension through a 26- or 30-gauge Hamilton syringe into 3 cortical areas, 3.0 to 5.0 mm (2.0 to 3.0 mm for mice) below the dura. The approximate coordinates for these sites were 1.0 to 2.0 mm (0 to 1.0 mm for mice) anterior to the bregma and 3.5 to 4.0 mm (2.0 to 2.5 mm for mice) lateral to the midline, 0.5 to 1.5 mm (0 to 1.0 mm for mice) posterior to the bregma and 4.0 to 4.5 mm (2.0 to 3.5 mm for mice) lateral to the midline, and 3.0 to 4.0 mm (1.5 to 2.5 mm for mice) posterior to the bregma and 4.5 to 5.0 mm (2.0 to 3.0 mm for mice) lateral to the midline. The needle was retained in place for 5 minutes after each injection and a piece of bone wax was applied to the skull defects to prevent leakage of the injected solution. […]"}, "ischemic rat brains": {"system": "ischemic rat brains", "test": "Cell engraftment and neural differentiation in ischemic brain (immunofluorescent colocalization)", "type": "in vivo", "settings": "injection of GM6001 or brefeldin A-pretreatment of cells", "method": "as §2"}, "Epac1": {"system": "Epac1", "test": "Western blot of Epac1 in hUCB^34 cells after hypoxia preconditioning or DFX", "type": "cell-based, human", "settings": "cells treated with DFX, under either hypoxic or normoxic conditions", "experimental": "(§1) hUCB^34 cells (1×10^6/mL) were cultured in a StemSpan SFEM medium (StemCell Technologies, Vancouver, Canada) at 37° C. in 5% CO2-humidified incubators in normoxic (20% O2) or hypoxic (1% O2) conditions as previously described (Ivanovic et al., 2000, Br J Haematol 108:424-429). Hypoxic cultures were cultivated in a two-gas incubator (Jouan, Winchester, Va., USA) equipped with an O2 probe to regulate N2 levels. Cell number and viability were evaluated using trypan blue exclusion assay. For flowcytometry, cells were incubated with anti-human CD34 (Miltenyi Biotec, Gladbach, Germany) and then analyzed on a FACSCalibur flow cytometer (Becton, Dickinson and Co.). To produce chemical hypoxia, cells were treated in a medium containing […] of Desferrioxamine (DFX, Sigma-Aldrich, MO) that mimics hypoxic conditions by inhibiting the hydroxylation of a prolyl residue that is essential for the ubiquitination of HIF-1α (Schioppa et al., 2003, J Exp Med 198:1391-1402). […] The intensity of each band was measured using a Kodak Digital Science 1D Image Analysis System (Eastman Kodak, Rochester, N.Y.). The ratio of band intensity of Western blots in comparison with the internal control was calculated. Results were expressed as the mean value of the ratio±SEM for preparations."}, "[1]": {"system": "hypoxia-inducible factor-1α (HIF-1α)", "test": "Western blot of HIF-1α in HP- and DFX-treated hUCB^34 cells", "type": "cell-based, human", "settings": "HP- and DFX-treated hUCBs^34", "experimental": "as §1"}, "cerebral ischemic rats": {"system": "cerebral ischemic rats", "test": "Neurite regeneration in vivo in cerebral ischemic rats", "set-up": "species or system rat", "settings": "cells incubated with 10 μg/mL brefeldin A", "experimental": "Experimental rats and mice were divided into three groups (FIG. 2A): Intracerebral transplantation of hUCB^34 with HP (HP-hUCB^34), intracerebral transplantation of hUCB^34 without HP (hUCB^34), and a vehicle-control group. All transplantation took place on day 7. The HP-hUCB^34 group was treated in 1% O2 hypoxic conditions for 20-24 hours. Cerebral ischemia was induced in every experimental rat on day 0. At 7 days after cerebral ischemia, experimental rats in the two intracerebral hUCB^34 transplantation groups were injected stereotaxically with approximately 2×10^5 cells of hUCB^34 labeled with bis-benzimide in a 3-5 μL PBS suspension through a 26- or 30-gauge Hamilton syringe into 3 cortical areas, 3.0 to 5.0 mm (2.0 to 3.0 mm for mice) below the dura. […]\nMeasurement of neurite regeneration was performed as described earlier (Cafferty et al., 2004, J Neurosci 24:4432-4443). […] For quantification analysis, neurons with processes greater than twice the cell body diameter were counted as neurite-bearing cells. The length of the longest neurite of each neuron was measured from digitized images and quantified using imaging analysis software (SigmaScan 4.01.003)."}}}
{"smiles": "CNC(=O)[C@H](Cc1c[nH]c2ccccc12)NC(=O)[C@@H](CC(=O)NO)CC(C)C", "note": "[GM6001]", "values": [{"measurement": "neurological behavior recovery after HP-hUCB^34 implantation in presence of inhibitor", "setting": "cerebral ischemia rats", "result": "almost no recovery"}, {"measurement": "number of engrafted cells in HP-hUCB^34-treated rats with inhibitor", "setting": "ischemic rat brains", "result": "diminished"}]}
{"smiles": "CC(=O)N(O)CCCCCNC(=O)CCC(=O)N(O)CCCCCNC(=O)CCC(=O)N(O)CCCCCN", "note": "[DFX, Desferrioxamine]", "values": [{"measurement": "levels of Epac1 versus control cells", "setting": "Epac1", "result": "much higher levels of Epac1 than control cells"}, {"measurement": "protein level of HIF-1α", "setting": "[1]", "result": "increase in the protein level"}]}
{"smiles": "C[C@H]1CCC/C=C/[C@@H]2C[C@H](O)C[C@H]2[C@H](O)/C=C/C(=O)O1", "note": "[brefeldin A]", "values": [{"measurement": "neurite regeneration after transplantation of brefeldin A-incubated HP-hUCB^34", "setting": "cerebral ischemic rats", "result": "could not promote the neurite regeneration"}, {"measurement": "neurological behavior recovery after HP-hUCB^34 implantation in presence of inhibitor", "setting": "cerebral ischemia rats", "result": "down-regulated to the same extent as that of control group"}, {"measurement": "number of engrafted cells in HP-hUCB^34-treated rats with inhibitor", "setting": "ischemic rat brains", "result": "diminished"}]}
